According to US11524966B1 (Valo Early Discovery, Inc., priority 2017, dated 2022):

The compounds below were run against T1, USP28 (USP28-5(1-1077)-TEV-6*His; LifeSensors) (Homo sapiens, UniProt Q96RU2) (assay: Ubiquitin-Rhodamine 110 Assay for USP28 Activity, Example A-1(b)). Conditions: Ub-Rh110 assay, Example A-1(b).
T1 construct: construct USP28 (USP28-5(1-1077)-TEV-6*His; LifeSensors); TEV cleavage site (C); 6xHis (C); purchased LifeSensors
T1 sequence (Q96RU2 1-1077): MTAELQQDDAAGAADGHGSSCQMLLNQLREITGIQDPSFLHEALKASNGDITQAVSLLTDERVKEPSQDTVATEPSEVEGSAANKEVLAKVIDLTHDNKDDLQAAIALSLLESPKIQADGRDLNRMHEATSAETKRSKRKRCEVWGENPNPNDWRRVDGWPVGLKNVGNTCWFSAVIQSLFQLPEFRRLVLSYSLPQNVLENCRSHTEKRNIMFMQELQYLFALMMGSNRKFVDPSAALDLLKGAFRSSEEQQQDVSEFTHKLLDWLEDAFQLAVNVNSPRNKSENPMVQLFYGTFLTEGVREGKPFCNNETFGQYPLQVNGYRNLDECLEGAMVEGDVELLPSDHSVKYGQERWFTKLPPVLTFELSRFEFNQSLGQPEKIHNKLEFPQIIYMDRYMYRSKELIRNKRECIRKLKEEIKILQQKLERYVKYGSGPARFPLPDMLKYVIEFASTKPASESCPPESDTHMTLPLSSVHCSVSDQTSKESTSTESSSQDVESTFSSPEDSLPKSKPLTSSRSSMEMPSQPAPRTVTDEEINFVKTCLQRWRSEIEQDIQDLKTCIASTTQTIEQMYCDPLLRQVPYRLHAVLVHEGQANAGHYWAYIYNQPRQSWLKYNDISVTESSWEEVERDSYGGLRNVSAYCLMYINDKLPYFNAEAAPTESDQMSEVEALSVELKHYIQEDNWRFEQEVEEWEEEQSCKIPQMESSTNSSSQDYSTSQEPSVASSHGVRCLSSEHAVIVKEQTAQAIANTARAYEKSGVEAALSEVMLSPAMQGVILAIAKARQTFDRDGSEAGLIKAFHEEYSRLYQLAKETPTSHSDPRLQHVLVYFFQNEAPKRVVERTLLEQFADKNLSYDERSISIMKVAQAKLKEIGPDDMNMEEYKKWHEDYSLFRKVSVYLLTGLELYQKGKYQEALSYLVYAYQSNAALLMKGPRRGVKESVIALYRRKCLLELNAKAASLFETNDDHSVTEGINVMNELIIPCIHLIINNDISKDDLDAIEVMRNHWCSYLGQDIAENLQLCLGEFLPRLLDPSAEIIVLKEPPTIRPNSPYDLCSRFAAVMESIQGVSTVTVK
Format: biochemical
Method: Example A-1(b): Biochemical Assay: Ubiquitin-Rhodamine 110 Assay for USP28 Activity
Each assay was performed in a final volume of 20 μL in assay buffer containing 20 mM Tris-HCl (pH 8.0, (1M Tris-HCl, pH 8.0 solution; Corning 46-031-CM)), 2 mM CaCl2) (1M Calcium Chloride solution; Sigma #21114) 2 mM BME (2-Mercaptoethanol; Sigma 63689-25ML-F), 0.01% Prionex ([…] filtered, Sigma #G-0411), and 0.01% Triton X-100. Stock compound solutions were stored at −20° C. as 10 mM in DMSO. Up to 1 month prior to the assay, 2 mM test compounds were pre-dispensed into assay plates (Black, low volume; Corning #3820) and frozen at −20° C. Prestamped assay plates were allowed to come to room temperature on the day of the assay. For the screen, 100 nL of 2 mM was pre-dispensed for a final screening concentration of 10 μM (DMSO(fc)=0.5%). […] Plates were incubated stacked for 90 minutes at room temperature before fluorescence was read on the Envision (Excitation at 485 nm and Emission at 535 nm; Perkin Elmer) or on the PheraSTAR (Excitation at 485 nm and Emission at 535 nm; BMG Labtech).
For follow-up studies, each assay was performed in a final volume of 15 μL in assay buffer containing 20 mM Tris-HCl (pH 8.0, (1M Tris-HCl, pH 8.0 solution; Corning 46-031-CM)), 3 mM BME (2-Mercaptoethanol; Sigma 63689-25ML-F), 0.03% BGG (0.22 μM filtered, Sigma, G7516-25G), and 0.01% Triton X-100 (Sigma, T9284-10L). Nanoliter quantities of either an 8-point or 10-point, 3-fold serial dilution in DMSO was pre-dispensed into assay plates (Perkin Elmer, ProxiPlate-384 F Plus, #) for a final test concentration of either 25 μM to 11 nM or 25 μM to 1.3 nM, respectively. Enzyme USP28, construct USP28 (USP28-5(1-1077)-TEV-6*His; LifeSensors) concentration and incubation times were optimized for the maximal signal-to-background while maintaining initial velocity conditions at a fixed substrate concentration. The final concentration of the enzyme in the assay was 75 pM. Final substrate (Ub-Rh110; Ubiquitin-Rhodamine 110, R&D Systems #U-555) concentration was 25 nM with [Ub-Rh110]<<Km. 5 μL of 2× enzyme was added to assay plates (pre-stamped with compound) preincubated with USP28 for 30 minutes and then 5 μL of 2×Ub-Rh110 was added to assay plates. Plates were incubated stacked for 20 minutes at room temperature before 5 μL of stop solution was added (final concentration of 10 mM citric acid (Sigma, 251275-500G)). Fluorescence was read on the Envision (Excitation at 485 nm and Emission at 535 nm; Perkin Elmer) or on the PheraSTAR (Excitation at 485 nm and Emission at 535 nm; BMG Labtech).
For assay formats Example A-1(a), A-1(b), and A-2, data were reported as percent inhibition compared with control wells based on the following equation: % inh=1−((FLU−AveLow)/(AveHigh−AveLow)) where FLU=measured Fluorescence, AveLow=average Fluorescence of no enzyme control (n=16), and AveHigh=average Fluorescence of DMSO control (n=16). IC50 values were determined by curve fitting of the standard 4 parameter logistic fitting algorithm included in the Activity Base software package: IDBS XE Designer Model 205. Data is fitted using the Levenburg Marquardt algorithm.

| SMILES | USP28 A-1(b) IC50 range |
| --- | --- |
| Cc1ccc2c(N)c(C(=O)N[C@H]3COc4cc(N5CC6CCC(C5)N6)cc(F)c4C3)sc2n1 (single isomer, unassigned) [Example 1-29] | +++ (0.05-0.2 μM) |

Same assay, conditions: Ubiquitin-Rhodamine 110 assay, Example A-1(b)

| SMILES | USP28 A-1(b) IC50 range |
| --- | --- |
| CN[C@@H]1CCN(c2ccc3c(c2)CC[C@@H](NC(=O)c2sc4nc(C)cnc4c2N)C3)C1 (single isomer, unassigned) [Example 11-28] | + (>2 μM) |
| Cc1ccc2c(N)c(C(=O)N[C@@H]3COc4cc(N5C[C@@H]6CNC[C@H]6C5)ccc4C3)sc2n1 [Example 42, 3-amino-((S)-7-((3aS,6aS)-hexahydropyrrolo[3,4-c]pyrrol-2(1H)-yl)chroman-3-yl)-6-methylthieno[2,3-b]pyridine-2-carboxamide] | ++ (0.2-2 μM) |
| Cc1ccc2c(N)c(C(=O)N[C@@H]3CCc4cc(N5CCNCC5)ccc4C3)sc2n1 (single isomer, unassigned) [Example 11-22] | ++ (0.2-2 μM) |
| CN[C@@H]1CCN(c2ccc3c(c2)CC[C@H](NC(=O)c2sc4nc(C)cnc4c2N)C3)C1 (single isomer, unassigned) [Example 11-27] | ++ (0.2-2 μM) |
| Cc1ccc2c(N)c(C(=O)N[C@H]3COc4cc(N5CCNCC5)ccc4[C@H]3C)sc2n1 (single isomer, unassigned) [Example 11-15] | + (>2 μM) |
| Cc1cnc2c(N)c(C(=O)N[C@H]3CCc4cc(N5CCNCC5)ccc4C3)sc2n1 (single isomer, unassigned) [Example 11-19] | ++ (0.2-2 μM) |
| Cc1cnc2c(N)c(C(=O)N[C@H]3CCc4cc(N5C[C@@H]6C[C@H]5CN6)ccc4C3)sc2n1 (single isomer, unassigned) [Example 11-29] | ++ (0.2-2 μM) |
| Cc1ccc2c(N)c(C(=O)N[C@H]3COc4cc(N5CCNCC5)ccc4[C@@H]3C)sc2n1 (single isomer, unassigned) [Example 11-16] | + (>2 μM) |
| Cc1ccc2c(N)c(C(=O)N[C@H]3CCc4cc(N5CCNCC5)ccc4C3)sc2n1 (single isomer, unassigned) [Example 11-21] | ++ (0.2-2 μM) |
| Cc1cnc2c(N)c(C(=O)N[C@H]3CCc4cc(N5CCNCC(F)(F)C5)ccc4C3)sc2n1 [Example 454, (S)-7-amino-N-(6-(6,6-difluoro-1,4-diazepan-1-yl)-1,2,3,4-tetrahydronaphthalen-2-yl)-3-methylthieno[2,3-b]pyrazine-6-carboxamide] | +++ (0.05-0.2 μM) |
| Cc1ccc2c(N)c(C(=O)N[C@H]3CCc4cc(N5CC6CNCC(C5)O6)ccc4C3)sc2n1 (single isomer, unassigned) [Example 449] | ++ (0.2-2 μM) |

Same assay, conditions: Ubiquitin-Rhodamine 110 assay, format Example A-1(b)

| SMILES | USP28 A-1(b) IC50 range |
| --- | --- |
| Cc1cnc2c(N)c(C(=O)N[C@@H]3CCc4c(C#N)c(N5CCNCC5)cc(F)c4C3)sc2n1 [Example 14-11, (R)-7-amino-N-(5-cyano-8-fluoro-6-(piperazin-1-yl)-1,2,3,4-tetrahydronaphthalen-2-yl)-3-methylthieno[2,3-b]pyrazine-6-carboxamide] | ++ (0.2-2 μM) |
| Cc1ccc2c(N)c(C(=O)N[C@H]3CCc4c(C#N)c(N5CCNCC5)cc(F)c4C3)sc2n1 [Example 14-10, (S)-3-amino-N-(5-cyano-8-fluoro-6-(piperazin-1-yl)-1,2,3,4-tetrahydronaphthalen-2-yl)-6-methylthieno[2,3-b]pyridine-2-carboxamide] | +++ (0.05-0.2 μM) |
| Cc1cnc2c(N)c(C(=O)N[C@@H]3CCc4cc(N5C[C@H]6C[C@@H]5CN6)ccc4C3)sc2n1 (single isomer, unassigned) [Example 11-32] | ++ (0.2-2 μM) |
| Cc1cnc2c(N)c(C(=O)N[C@@H]3CCc4cc(N5CCNCC5)cc(F)c4C3)sc2n1 (single isomer, unassigned) [Example 11-37] | + (>2 μM) |
| Cc1cnc2c(N)c(C(=O)N[C@@H]3CCc4cc(N5C[C@@H]6C[C@H]5CN6)ccc4C3)sc2n1 (single isomer, unassigned) [Example 11-30] | ++ (0.2-2 μM) |
| Cc1cnc2c(N)c(C(=O)N[C@H]3CCc4cc(N5CCNCC5)cc(F)c4C3)sc2n1 (single isomer, unassigned) [Example 11-38] | +++ (0.05-0.2 μM) |
